Data on 14 compounds can be found in US20240366606A1, “MRGPRX2 ANTAGONISTS AND USES THEREOF” (The Regents of the University of California, priority 2021, published 2024).

Where two headings read alike, the source gives them in different places.

The target in this assay is MRGPRX2 (Homo sapiens (Human), UniProt Q96LB1). The assay is described as follows: FLIPR Ca2+ assay, antagonist mode, tetracycline-inducible MRGPRX2 stable cell line. The assay is classed as cell-based. On the procedure: FLIPR Ca2+ assay. […] NK1 stably expressing cell were maintained in DMEM containing 10% (v/v) FBS, 100 units ml^−1 penicillin G and 100 μg ml^−1 streptomycin. On the day of assay, cells were plated into Poly-L-Lysine (PLL) coated 384-well black clear bottom cell culture plates with DMEM buffer, which is composed of 1% (v/v) dialyzed FBS, 100 units ml^−1 penicillin G, 100 μg ml^−1 streptomycin with 1 μg ml^−1 tetracycline at density of 20,000 cells in 40 μl per well for overnight. For NK1 stable cells, the same media used for MRGPRX2 or MRGPRX4 cells except the tetracycline were used. Medium was removed and cells were incubated with 20 μl of calcium dye (FLIPR Calcium 4 Assay Kit; Molecular Devices) diluted in assay buffer (1×HBSS, 2.5 mM probenecid, and 20 mM HEPES, pH 7.4) for 1 hour at 37° C. and 20 min at room temperature in the dark. To measure agonist activity of receptors, drug plates were prepared with increasing concentrations of test compound at 3 times the desired final concentration using drug buffer (1×HBSS, 20 mM HEPES, 0.1% (w/v) BSA, pH 7.4). Once loaded in FLIPR (Molecular Devices), basal fluorescence was measured for 10 s, then 10 μl of test compounds were added followed by continued fluorescence measurement for an additional 120 s. When measuring antagonist activity of receptors, drug plates were prepared with increasing concentrations of test compound at 4 times the desired final concentration, added as above for their potential effects on basal levels for 120 s first, followed by a 15 min incubation before addition of 10 μl of 4× of reference agonist at final concentration corresponding to the EC80. Data were normalized to % reference compound stimulation and analyzed using nonlinear regression “log(agonist) vs. response” in GraphPad Prism 9.0.

[1] abbreviates: Table 1, read-out: pKi (calc.) (converted).

Chain of MRGPRX2 (Q96LB1 whole entry): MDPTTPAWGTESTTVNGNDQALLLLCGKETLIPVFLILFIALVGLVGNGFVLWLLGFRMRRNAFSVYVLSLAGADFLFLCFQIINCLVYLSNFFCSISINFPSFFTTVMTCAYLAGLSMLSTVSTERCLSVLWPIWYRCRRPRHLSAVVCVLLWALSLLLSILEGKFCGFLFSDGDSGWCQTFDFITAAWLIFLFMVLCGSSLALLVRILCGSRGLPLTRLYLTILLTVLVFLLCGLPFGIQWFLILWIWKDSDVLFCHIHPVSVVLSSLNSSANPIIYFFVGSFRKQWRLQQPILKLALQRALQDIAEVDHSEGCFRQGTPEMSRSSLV

For `O=c1c2ccccc2[nH]c(=S)n1Cc1ccccc1` [Compound 1], the Ki (Table 1, read-out: Ki) stood at 57 nM and the Ki under setting [1] is 63.1 nM.
Regarding `O=c1c2ccccc2[nH]c(=S)n1Cc1ccon1` [Compound 5], the Ki was 895 nM (Table 1, read-out: Ki) and 1000 nM under setting [1].
For the compound `Cn1ccnc1Cn1c(=S)[nH]c2ccccc2c1=O` [Compound 6], the “pKi (calc.)” value (Table 1) is given as 6.5. Also, under “Table 1, read-out: Ki”, the Ki amounted to 318 nM.
`O=c1c2ccccc2[nH]c(=S)n1CCc1ccccn1` [Compound 7]: the “pKi (calc.)” value (Table 1) was 5.2. For the setting “Table 1, read-out: Ki”, the Ki stood at 6520 nM. For the same compound, the “antagonist activity for MRGPRX2” value (in words, SAR around '1592) is “inactive control”.
Consider `COc1cccnc1Cn1c(=S)[nH]c2ccccc2c1=O` [Compound 8], for which the Ki runs as follows: (Table 1, read-out: Ki) 57 nM; under setting [1], 63.1 nM.
Turning to `O=c1c2cc(F)ccc2[nH]c(=S)n1Cc1ccccn1` [Compound 14], the “pKi (calc.)” value (Table 1) was 5.6. Also, the Ki (Table 1, read-out: Ki) was determined as 2520 nM.
The like results for `O=c1c2ccccc2[nH]c(=S)n1Cc1ccon1` [Compound C9-1] were, in that order, 6.76 ± 0.21 and 172 nM.
Turning to `O=c1c2ccccc2[nH]c(=S)n1Cc1ccc(Cl)cc1` [Compound C9-3], the “pKi (calc.)” value (Table 1) is recorded as 5.75 ± 0.16. Also, under “Table 1, read-out: Ki”, the Ki came to 1780 nM.
As for `O=c1c2ccccc2[nH]c(=S)n1Cc1ccccc1Cl` [Compound C9-4], the “pKi (calc.)” value (Table 1) is 5.93 ± 0.3. Further, the Ki (Table 1, read-out: Ki) came to 1160 nM.
The like results for `COc1ccccc1Cn1c(=S)[nH]c2ccccc2c1=O` [Compound C9-5] were, in that order, 7.01 ± 0.07 and 98 nM.
Turning to `Cc1csc(Cn2c(=S)[nH]c3ccccc3c2=O)n1` [Compound C9-7], the “pKi (calc.)” value (Table 1) was 6.03 ± 0.08. In addition, the Ki (Table 1, read-out: Ki) was determined as 929 nM.
The like results for `O=c1c2ccccc2[nH]c(=S)n1Cc1cccs1` [Compound C9-8] were, in that order, 6.29 ± 0.23 and 514 nM.
The like results for `O=c1c2ccccc2[nH]c(=S)n1Cc1ccsc1` [Compound C9-9] were, in that order, 7.32 ± 0.04 and 47 nM.
In the case of `O=c1c2ccccc2[nH]c(=S)n1Cc1ccccn1` [ZINC16991592, reference compound], the Ki is, setting by setting: (Table 1, read-out: Ki) 2190 nM; under setting [1], 2340 nM; (antagonist activity at MRGPRX2, EC80 (R)-ZINC-3573 (3 μM), read-out: Ki value) 189 nM.
